According to ChEMBL document CHEMBL1201862, “PubChem BioAssay data set” (2004):
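1) Cells in 96-well plates. 2) Compound, 48 h, 5 concentrations. 3) Linear interpolation between surrounding doses. 4) Unreached endpoint = highest concentration. The concentration for 50% growth inhibition is given as GI50.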 Calls of active or inactive are those of the source. Rule as the data show it: active = GI50 up to about 1.1 µM and inactive = higher.

Key:
Test in all cases: inhibition of tumour cell growth, NCI panel, 48 h
OVCAR-8 = test system: OVCAR-8
KM-20L2 = test system: KM-20L2
SK-MEL-28 = test system: SK-MEL-28
UACC-62 = test system: UACC-62
TK-10 = test system: TK-10
HOP-18 = test system: HOP-18
M19-MEL = test system: M19-MEL
M14 = test system: M14
HOP-62 = test system: HOP-62
CAKI-1 = test system: CAKI-1
LOX IMVI = test system: LOX IMVI
SK-MEL-2 = test system: SK-MEL-2
UO-31 = test system: UO-31
HCT-15 = test system: HCT-15
HL-60 = test system: HL-60
SF-295 = test system: SF-295
MOLT-4 = test system: MOLT-4
SW-620 = test system: SW-620
HT-29 = test system: HT-29
COLO 205 = test system: COLO 205
SK-MEL-5 = test system: SK-MEL-5
LXFL 529 = test system: LXFL 529
SN12C = test system: SN12C
CCRF-CEM = test system: CCRF-CEM
KM12 = test system: KM12
DLD-1 = test system: DLD-1
Malme-3M = test system: Malme-3M
DMS-273 = test system: DMS-273
NCI-H522 = test system: NCI-H522
IGROV-1 = test system: IGROV-1
SF-268 = test system: SF-268
SF-539 = test system: SF-539
SNB-78 = test system: SNB-78
UACC-257 = test system: UACC-257
OVCAR-3 = test system: OVCAR-3
NCI-H23 = test system: NCI-H23
U-251 = test system: U-251
SNB-75 = test system: SNB-75
DMS-114 = test system: DMS-114
RXF 393 = test system: RXF 393
NCI-H460 = test system: NCI-H460
RPMI-8226 = test system: RPMI-8226
A549 = test system: A549
786-0 = test system: 786-0
OVCAR-4 = test system: OVCAR-4
SR = test system: SR
HOP-92 = test system: HOP-92
ACHN = test system: ACHN
SK-OV-3 = test system: SK-OV-3
SNB-19 = test system: SNB-19
HCT-116 = test system: HCT-116
OVCAR-5 = test system: OVCAR-5
NCI-H226 = test system: NCI-H226
HCC 2998 = test system: HCC 2998
T47D = test system: T47D
MDA-MB-435 = test system: MDA-MB-435
MCF7 = test system: MCF7
MDA-MB-231 = test system: MDA-MB-231
DU-145 = test system: DU-145
K562 = test system: K562
MDA-N = test system: MDA-N
NCI/ADR-RES = test system: NCI/ADR-RES
Hs-578T = test system: Hs-578T
EKVX = test system: EKVX
BT-549 = test system: BT-549
A498 = test system: A498
PC-3 = test system: PC-3

Measured: GI50

CCN1C[C@]2(C)CC[C@H](O)C34C1C(C[C@@H]32)[C@@]1(O)CC[C@H]2C[C@@H]4[C@@H]1[C@H]2O
> 100 µM: HCT-15
inactive: OVCAR-8 > 100 µM | KM-20L2 > 100 µM | SK-MEL-28 > 100 µM | UACC-62 > 100 µM | TK-10 > 100 µM | HOP-18 > 100 µM | M19-MEL > 100 µM | M14 > 100 µM | HOP-62 > 100 µM | CAKI-1 > 100 µM | LOX IMVI > 100 µM | SK-MEL-2 > 100 µM | UO-31 > 100 µM | HL-60 > 100 µM | SF-295 > 100 µM | MOLT-4 > 100 µM | SW-620 > 100 µM | HT-29 > 100 µM | COLO 205 > 100 µM | SK-MEL-5 > 100 µM | LXFL 529 > 100 µM | SN12C > 100 µM | CCRF-CEM > 100 µM | KM12 > 100 µM | DLD-1 > 100 µM | Malme-3M > 100 µM | DMS-273 > 100 µM | NCI-H522 > 100 µM | IGROV-1 > 100 µM | SF-268 > 100 µM | SF-539 > 100 µM | SNB-78 88.7 µM | UACC-257 > 100 µM | OVCAR-3 > 100 µM | NCI-H23 > 100 µM | U-251 > 100 µM | SNB-75 > 100 µM | DMS-114 > 100 µM | RXF 393 > 100 µM | NCI-H460 > 100 µM | RPMI-8226 > 100 µM | A549 > 100 µM | 786-0 > 100 µM | OVCAR-4 > 100 µM | SR > 100 µM | HOP-92 > 100 µM | ACHN > 100 µM | SK-OV-3 > 100 µM | SNB-19 > 100 µM | HCT-116 > 100 µM | OVCAR-5 > 100 µM

COc1ccc(C(=O)C(C(=O)CCC(=O)Nc2ccc(C)c(C)c2)c2ccc(OC)cc2)cc1 (stereo not given)
> 100 µM: HCT-15
inactive: OVCAR-8 > 100 µM | KM-20L2 > 100 µM | HOP-18 > 100 µM | M19-MEL > 100 µM | M14 > 100 µM | HOP-62 > 100 µM | CAKI-1 > 100 µM | LOX IMVI > 100 µM | SK-MEL-2 > 100 µM | NCI-H226 > 100 µM | UO-31 > 100 µM | HL-60 > 100 µM | SF-295 > 100 µM | SW-620 > 100 µM | HT-29 > 100 µM | COLO 205 > 100 µM | LXFL 529 > 100 µM | SN12C > 100 µM | KM12 > 100 µM | HCC 2998 > 100 µM | Malme-3M > 100 µM | DMS-273 > 100 µM | UACC-257 > 100 µM | OVCAR-3 > 100 µM | DMS-114 > 100 µM | NCI-H460 > 100 µM | OVCAR-4 > 100 µM | SR > 100 µM | HOP-92 48.9 µM | SNB-19 > 10 µM | HCT-116 > 100 µM | OVCAR-5 > 100 µM

CC(NC1CCCC[C@H]1O)c1ccccc1 (stereo not given in full)
inactive: KM-20L2 > 100 µM | SK-MEL-28 > 100 µM | UACC-62 > 100 µM | HOP-18 > 100 µM | M19-MEL > 100 µM | M14 > 100 µM | HOP-62 > 100 µM | CAKI-1 > 100 µM | SK-MEL-2 > 100 µM | NCI-H226 > 100 µM | UO-31 > 100 µM | MOLT-4 > 100 µM | SW-620 > 100 µM | HT-29 > 100 µM | COLO 205 > 100 µM | SK-MEL-5 > 100 µM | LXFL 529 > 100 µM | HCC 2998 > 100 µM | DLD-1 > 100 µM | Malme-3M > 100 µM | IGROV-1 > 100 µM | SNB-78 > 100 µM | UACC-257 > 100 µM | U-251 > 100 µM | SNB-75 > 100 µM | NCI-H460 > 100 µM | RPMI-8226 > 100 µM | A549 > 100 µM | 786-0 > 100 µM | OVCAR-4 > 100 µM | HOP-92 > 100 µM | ACHN > 100 µM | SK-OV-3 > 100 µM | SNB-19 > 100 µM | HCT-116 > 100 µM | OVCAR-5 > 100 µM

COc1cc(C2S/C(=C/c3ccccc3)C(=O)N2c2ccc([N+](=O)[O-])cc2)cc(OC)c1OC (stereo not given)
26.4 µM: HCT-15
inactive: OVCAR-8 > 100 µM | T47D 40.9 µM | MDA-MB-435 18 µM | SK-MEL-28 > 100 µM | UACC-62 3.91 µM | TK-10 > 100 µM | MCF7 58.3 µM | M14 26.1 µM | HOP-62 92.7 µM | CAKI-1 97.1 µM | LOX IMVI 19 µM | SK-MEL-2 > 91.4 µM | NCI-H226 58.9 µM | MDA-MB-231 > 100 µM | DU-145 > 41.2 µM | UO-31 47 µM | K562 3.68 µM | MDA-N > 56.8 µM | HL-60 40.6 µM | SF-295 58.1 µM | MOLT-4 47.3 µM | SW-620 > 100 µM | HT-29 > 39.6 µM | COLO 205 26.1 µM | SK-MEL-5 25.6 µM | NCI/ADR-RES > 80.4 µM | SN12C > 90.6 µM | CCRF-CEM 32.6 µM | KM12 28.6 µM | Hs-578T > 100 µM | HCC 2998 > 100 µM | Malme-3M > 100 µM | NCI-H522 > 63.5 µM | IGROV-1 > 20.6 µM | SF-268 > 83.9 µM | SF-539 > 100 µM | UACC-257 60.7 µM | EKVX 39.6 µM | OVCAR-3 > 78 µM | BT-549 44.9 µM | NCI-H23 > 100 µM | U-251 > 100 µM | SNB-75 > 100 µM | RXF 393 > 100 µM | NCI-H460 48 µM | RPMI-8226 > 57.7 µM | A549 > 96.4 µM | 786-0 > 100 µM | OVCAR-4 45.9 µM | A498 73.1 µM | SR 9.27 µM | HOP-92 > 100 µM | ACHN > 21 µM | SK-OV-3 > 100 µM | SNB-19 > 100 µM | HCT-116 > 64.9 µM | OVCAR-5 15.5 µM | PC-3 > 100 µM
